{
  "source": "patent US4230725A",
  "about": "“Antiviral agent” (Sumitomo Chemical Company, Limited, priority 1977, dated 1980)",
  "key": {"[1]": {"tested_on": "herpes simplex virus type I (HF strain)", "assay": "Effect on the growth of herpes virus in tissue cultures (tube dilution method)", "assay_type": "cell-based", "conditions": "for MIC: read-out: MIC (minimum virus growth inhibitory concentration); for MIC (minimum virus growth inhibitory concentration): host cells KB", "protocol": "The antiviral activity was examined by the tube dilution method. HeLa cells and KB cells for the assay were cultured in YLE medium and Eagle MEM medium in vitro, respectively, containing 10% fetal calf serum. After the cells were grown in a monolayer form, the medium was exchanged to the fresh medium supplemented with 2% fetal calf serum, and then about 1000 TCD50 of herpes simplex virus type I (HF strain) and the test compound were added. After 72 hours' incubation at 37° C., the cytotoxicity of the compound and the virus induced cytopathic effect (CPE) were observed microscopically.\nThe antiviral activity was expressed in minimum virus growth inhibitory concentration (MIC) and minimum cytotoxic concentration (MCC) in Table 1."}, "eyes of a rabbit": {"tested_on": "eyes of a rabbit", "assay": "Herpes keratitis in rabbit: toxicity control eyes (scratched, not infected)", "assay_type": "in vivo", "conditions": "0.5% eye lotion", "protocol": "After 2% cocaine was applied to the eyes of a rabbit anesthetized with barbital, the corneal epithelium of each eye was scratched and infected with herpes simplex virus type I (HF strain).\nThe treatment with the compound A was carried out as follows: Twelve hours after virus infection, 0.5% eye lotion of the compound A in 1.4% polyvinyl alcohol was applied every two hours, five times a day during seven days.\nFor seven days after infection, the lesions on the conjunctiva, cornea and iris were daily observed visually prior to the first treatment and recorded according to the scoring method.\nSeparately from this, eyes of a rabbit were scratched but not infected with virus, one of the eyes was similarly treated with the compound A and the other eye was treated with 1.4% polyvinyl alcohol as toxicity control."}, "[2]": {"tested_on": "herpes simplex virus type I (HF strain)", "assay": "Therapeutic effect on herpes encephalitis in mice", "assay_type": "in vivo", "conditions": "for Survival ratio: 21st day, untreated 0/10; for Mean survival term: 21 days", "protocol": "Mice were anesthetized with ether and were infected intracerebrally […] with about 30 LD50 of herpes simplex virus type I (HF strain). The infected mice were administered with the compound A according to various therapeutic schedules. The therapeutic effects of the compound A were examined on the basis of the survival ratios at the 3rd week after virus infection and the mean survival days.\n^a Dose of administration\n^b Administration schedule of each route was as follows:\ni.c. (intracerebrally): Single administration simultaneously with virus\np.o. (per os): Two administrations per day during 8.5 days from 4 hours\ns.c. (subcutaneously): Two administrations per day during 8.5 days from 4\nhours after virus infection.\ni.v. (intravenously): Single administration 3 hours after virus infection\n^c The animals were examined for 21 days after infection, and mean\nsurvival term was determined.\n^d Survival ratio on the 21st day after virus infection."}, "Influenza Ao PR/8": {"tested_on": "Influenza Ao PR/8", "assay_type": "in vivo, ddY male mice", "conditions": "7 days after infection, dose 0: 4.8"}, "[3]": {"tested_on": "herpes and influenza viruses", "assay": "Antiviral activity, overall statement", "conditions": "against herpes and influenza viruses; in vivo as well as in vitro"}, "in vitro [4]": {"assay": "in vitro", "conditions": "human, hela cells"}, "in vitro [5]": {"assay": "in vitro", "conditions": "human, kb cells"}, "Acute toxicity in mice": {"assay": "Acute toxicity in mice", "conditions": "mouse, in vivo"}, "[6]": {"conditions": "about 1000 TCD50, 72 hours at 37° C."}},
  "note": "Where a name gives a salt, the structure may show the parent alone. Read-outs that look alike come from different tables or passages of the source.",
  "data": [
    {"smiles": "Cl.NC12CCCC(C1)C1CCC2C1", "note": "(stereo not drawn) [Compound A, 1-Amino-2,4-ethanobicyclo[3,3,1]nonane hydrochloride]", "values": [
      {"measurement": "MIC", "setting": "[1]; host cells HeLa, about 1000 TCD50, 72 hours at 37° C.", "result": 2.5, "unit": "µg/mL"},
      {"measurement": "MIC (minimum virus growth inhibitory concentration)", "setting": "[1]; [6]", "result": 2.5, "unit": "µg/mL"},
      {"measurement": "effect on cure period as compared with the toxicity control", "setting": "eyes of a rabbit; five times a day during seven days, scratched uninfected rabbit eyes", "result": "did not prolong the cure period"},
      {"measurement": "toxicity of the eye lotion", "setting": "eyes of a rabbit; rabbit eyes", "result": "no toxicity"},
      {"measurement": "Survival ratio", "setting": "[2]; 5 mg/kg i.c., single administration simultaneously with virus infection", "result": "6/10"},
      {"measurement": "Mean survival term", "setting": "[2]; 5 mg/kg i.c., single administration simultaneously with virus infection, untreated 5.7", "result": 8.3, "unit": "days"},
      {"measurement": "Survival ratio", "setting": "[2]; 10 mg/kg i.v., single administration 3 hours after infection", "result": "4/10"},
      {"measurement": "Mean survival term", "setting": "[2]; 10 mg/kg i.v., single administration 3 hours after infection, untreated 5.8", "result": 8.1, "unit": "days"},
      {"measurement": "Survival ratio", "setting": "[2]; 100 mg/kg p.o., two per day during 8.5 days from 4 hours after infection", "result": "4/10"},
      {"measurement": "Mean survival term", "setting": "[2]; 100 mg/kg p.o., two per day during 8.5 days from 4 hours after infection, untreated 5.5", "result": 7.7, "unit": "days"},
      {"measurement": "Survival ratio", "setting": "[2]; 100 mg/kg s.c., two per day during 8.5 days from 4 hours after infection", "result": "5/10"},
      {"measurement": "Mean survival term", "setting": "[2]; 100 mg/kg s.c., two per day during 8.5 days from 4 hours after infection, untreated 5.7", "result": 7.6, "unit": "days"},
      {"measurement": "Lung Lesion Score", "setting": "Influenza Ao PR/8; 7.5 mg/kg subcutaneous, no asterisk", "result": 4.4},
      {"measurement": "Lung Lesion Score", "setting": "Influenza Ao PR/8; 15 mg/kg subcutaneous, *P < 0.05", "result": 4.2},
      {"measurement": "Lung Lesion Score", "setting": "Influenza Ao PR/8; 30 mg/kg subcutaneous, *P < 0.05", "result": 4.0},
      {"measurement": "antiviral activity", "setting": "[3]", "result": "very strong antiviral activity"},
      {"measurement": "MCC at 72 h", "setting": "in vitro [4]", "result": 100, "unit": "µg/mL"},
      {"measurement": "MCC at 72 h", "setting": "in vitro [5]", "result": 100, "unit": "µg/mL"},
      {"measurement": "LD50", "setting": "Acute toxicity in mice; iv", "result": 58, "unit": "mg/kg"},
      {"measurement": "LD50", "setting": "Acute toxicity in mice; po", "result": 320, "unit": "mg/kg"}
    ]},
    {"smiles": "NC12CC3CC(CC(C3)C1)C2", "note": "[Amantadine hydrochloride, reference compound]", "values": [
      {"measurement": "MIC", "setting": "[1]; 72 h", "result": 50, "unit": "µg/mL"},
      {"measurement": "MIC (minimum virus growth inhibitory concentration)", "setting": "[1]; [6]", "result": 50, "unit": "µg/mL"},
      {"measurement": "Lung Lesion Score", "setting": "Influenza Ao PR/8; 10 mg/kg subcutaneous, *P < 0.05", "result": 4.3},
      {"measurement": "Lung Lesion Score", "setting": "Influenza Ao PR/8; 25 mg/kg subcutaneous, *P < 0.05", "result": 4.1},
      {"measurement": "Lung Lesion Score", "setting": "Influenza Ao PR/8; 50 mg/kg subcutaneous, *P < 0.05", "result": 4.0},
      {"measurement": "MCC at 72 h", "setting": "in vitro [4]", "result": "> 50", "unit": "µg/mL"},
      {"measurement": "MCC at 72 h", "setting": "in vitro [5]", "result": "> 50", "unit": "µg/mL"}
    ]}
  ]
}
